Patent publication US4977268A, “Boron dipeptide compounds” (priority 1988, dated 1990)
≈ marks a conversion by molar mass, not a printed value.

Tests used:
L-1210 lymphoid leukemia = assay: Cytotoxic assay, L-1210 lymphoid leukemia cell line; type: cell-based; conditions: dosage required to kill 50 percent of the tumor cells in cell culture
Source text: (§2) Boron dipeptide analogs were investigated for potential antineoplastic activity in the Ehrlich ascites carcinoma in vivo screen in CF-1 mice and in cytotoxic assays involving the L-1210 lymphoid leukemia and P-388 lymphocytic leukemia cell lines. The ED50 is the effective dosage required to kill 50 percent of the tumor cells in the leukemia cell culture.

[1] = tested on: P-388 lymphocytic leukemia; assay: Cytotoxic assay, P-388 lymphocytic leukemia cell line; type: cell-based; conditions: dosage required to kill 50 percent of the tumor cells in cell culture
Source text: as §2

[2] = tested on: Ehrlich ascites carcinoma; assay: Ehrlich ascites carcinoma in vivo screen; parameters: concentration or dose not given beside the values; conditions: CF-1 mice
serum cholesterol levels = assay: Antihyperlipidemic screen, serum cholesterol; type: in vivo; conditions: male CF1 mice
Procedure: (§1) Compounds to be tested were suspended in 1% aqueous carboxymethylcellulose and administered to male CF1 mice (25 g) intraperitoneally for 16d. On days 9 and 16, blood was obtained by tail vein bleeding, and the serum was separated by centrifugation for three minutes. The serum cholesterol levels were determined by a modification of the Liebermann-Burchard reaction [A. T. Ness, J. V. Pastewka, and A. C. Peacock, Clin. Chim. Acta, 10, 229 (1964)]. Serum triglyceride levels were determined with a commercial kit [Fisher, Hycel Triglyceride Test Kit] for a different group of animal bled on day 16.

[3] = tested on: Serum triglyceride levels; assay: Antihyperlipidemic screen, serum triglyceride; type: in vivo; conditions: male CF1 mice
Procedure: as §1

Row | Compound | ED50 Cytotoxicity L-1210 Lymphoid Leukemia (L-1210 lymphoid leukemia) | ED50 Cytotoxicity P-388 Lymphocytic Leukemia [1] | In Vivo % Inhibition of Ehrlich Ascites Carcinoma Growth [2] | % Inhibition Serum Cholesterol Day 9 (serum cholesterol levels; 8 mg/kg intraperitoneally) | % Inhibition Serum Cholesterol Day 16 (serum cholesterol levels; 8 mg/kg intraperitoneally) | % Inhibition Serum Triglyceride Day 16 ([3]; 8 mg/kg intraperitoneally) | % Inhibition Serum Cholesterol Day 9 (serum cholesterol levels; 20 mg/kg intraperitoneally) | % Inhibition Serum Cholesterol Day 16 (serum cholesterol levels; 20 mg/kg intraperitoneally) | % Inhibition Serum Triglyceride Day 16 ([3]; 20 mg/kg intraperitoneally)
1 | O=c1[nH]cc(F)c(=O)[nH]1 [5-Fluorouracil, reference compound] | 1.94 µg/mL (≈ 14.9 µM) | 3.72 µg/mL (≈ 28.6 µM) | – | – | – | – | – | – | –
2 | Sc1ncnc2nc[nH]c12 [6-Mercaptopurine, reference compound] | 2.43 µg/mL (≈ 16 µM) | 4.10 µg/mL (≈ 26.9 µM) | 99.6% | – | – | – | – | – | –
3 | Nc1ccn([C@@H]2O[C@H](CO)[C@@H](O)[C@@H]2O)c(=O)n1 [Ara C, reference compound] | 2.76 µg/mL (≈ 11.3 µM) | 4.06 µg/mL (≈ 16.7 µM) | – | – | – | – | – | – | –
4 | NC(=O)CNC(=O)[BH2-][NH3+] [Compound 1, N-[(ammonia-boryl)carbonyl]glycine amide] | 1.40 µg/mL (≈ 10.7 µM) | 7.62 µg/mL (≈ 58.2 µM) | 67% | 21% | 42% | 53% | – | – | –
5 | NC(=O)C(CO)NC(=O)[BH2-][NH3+] (stereo not drawn) [Compound 2, N-[(Ammoniaboryl)carbonyl]serine amide] | 10.6 µg/mL (≈ 65.9 µM) | 8.73 µg/mL (≈ 54.2 µM) | 52% | – | – | – | – | – | –
6 | CSCCC(NC(=O)[BH2-][NH3+])C(N)=O (stereo not drawn) [Compound 3, N-[(Ammonia-boryl)carbonyl] methionine amide] | 4.17 µg/mL (≈ 20.3 µM) | 8.57 µg/mL (≈ 41.8 µM) | 75% | – | – | – | – | – | –
7 | COC(=O)CNC(=O)[BH2-][N+](C)(C)C [Compound 7, N-[(Trimethylamine-boryl)carbonyl]glycine methyl ester] | 7.00 µg/mL (≈ 37.2 µM) | 12.11 µg/mL (≈ 64.4 µM) | 89% | 21% | 42% | 59% | 31% | 52% | 30%
8 | COC(=O)[C@H](CO)NC(=O)[BH2-][N+](C)(C)C [Compound 8, N-[(Trimethylamine-boryl)carbonyl]-L-serine methyl ester] | 1.98 µg/mL (≈ 9.08 µM) | 9.21 µg/mL (≈ 42.2 µM) | 61% | – | – | – | – | – | –
9 | COC(=O)[C@H](CCSC)NC(=O)[BH2-][N+](C)(C)C [Compound 9, N-[(Trimethylamine-boryl)carbonyl]-L-methionine methyl ester] | 6.62 µg/mL (≈ 25.2 µM) | 12.86 µg/mL (≈ 49 µM) | 41% | – | – | – | 55% | 55% | 23%
10 | COC(=O)[C@H](Cc1ccccc1)NC(=O)[BH2-][N+](C)(C)C [Compound 13, N-[(Trimethylamine-boryl)carbonyl]-L-phenylalanine methyl ester] | 10.84 µg/mL (≈ 39 µM) | 8.89 µg/mL (≈ 32 µM) | 94% | – | – | – | 25% | 48% | 33%
11 | COC(=O)[C@H](C)NC(=O)[BH2-][N+](C)(C)C [Compound 16, N-[(Trimethylamine-boryl)carbonyl]-L-alanine methyl ester] | – | – | 83% | – | – | – | – | – | –
12 | N[C@@H](Cc1ccc(N(CCCl)CCCl)cc1)C(=O)O [Melphalan, reference compound] | – | – | 99% | – | – | – | – | – | –
